This is an account of results in patent publication US10681908B2, “Molecules having pesticidal utility, and intermediates, compositions, and processes, related thereto” (Dow AgroSciences LLC, priority 2016, dated 2020).

As usually defined, the mortality is the share of the test organisms that died.

Holding throughout (assay type): in vivo
The test system of data set [1] is Yellow Fever Mosquito (Aedes aegypti, AEDSAE). Conditions: about 1 day-old larvae, 3 days, room temperature, scored on mortality. As to the method:
Example C: Bioassays on Yellow Fever Mosqurro (Aedes aegypti, AEDSAE) (“YFM”)
Certain molecules disclosed in this document were tested against YFM using procedures described in the following paragraph. In the reporting of the results, the “GPA & YFM Rating Table” was used (See Table Section).
Master plates containing 400 μg of a molecule dissolved in 100 μL of dimethyl sulfoxide (DMSO) (equivalent to a 4000 ppm solution) are used. A master plate of assembled molecules contains 15 μL per well. To this plate, 135 μL of a 90:10 water:acetone mixture is added to each well. A robot (Biomek® NXP Laboratory Automation Workstation) is programmed to dispense 15 μL aspirations from the master plate into an empty 96-well shallow plate (“daughter” plate). There are 6 reps (“daughter” plates) created per master. The created daughter plates are then immediately infested with YFM larvae.
The day before plates are to be treated, mosquito eggs are placed in Millipore water containing liver powder to begin hatching (4 g. into 400 mL). After the daughter plates are created using the robot, they are infested with 220 μL of the liver powder/larval mosquito mixture (about 1 day-old larvae). After plates are infested with mosquito larvae, a non-evaporative lid is used to cover the plate to reduce drying. Plates are held at room temperature for 3 days prior to grading. After 3 days, each well is observed and scored based on mortality. The results are indicated in the table entitled “Table ABC: Biological Results” (See Table Section).

In data set [2] the test system is Beet Armyworm (Spodoptera exigua, LAPHEG). The data set can be described thus: Bioassay on Beet Armyworm (BAW), 128-well diet tray assay. The conditions noted are these: 168 h, 50 μg/cm^2 on artificial diet, second instar larvae, five to seven days, 25° C., read-out: BAW % Control (or Mortality) rating. Put shortly:
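Artificial diet was surface-treated with 50 μg/cm^2 of compound in 90:10 acetone-water and dried; one to five second-instar larvae were placed per well, eight wells per treatment. Held at 25 °C, 14:10 light-dark, for five to seven days, then percent mortality per well was averaged.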

Data set [3] deals with Cabbage Looper (Trichoplusia ni, TRIPNI). Description: Bioassay on Cabbage Looper (CL), 128-well diet tray assay. Conditions: 168 h, 50 μg/cm^2 on artificial diet, second instar larvae, five to seven days, 25° C., read-out: CL % Control (or Mortality) rating. In short, it runs like this: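 Diet-tray assay: 1–5 second-instar larvae per well on artificial diet surface-treated with 50 μg/cm^2 compound (90:10 acetone-water, dried), eight wells per compound. Held at 25° C., 14:10 light-dark for five to seven days; percent mortality per well averaged across the eight wells.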

In the case of `C[C@H](CSCC(F)(F)F)NC(=O)c1ccc(/C(F)=C/C(c2cc(Cl)cc(Cl)c2)C(F)(F)F)cc1C(F)(F)F` (stereo partly drawn) [F19, 4-((Z)-3-(3,5-Dichlorophenyl)-1,4,4,4-tetrafluorobut-1-en-1-yl)-N—((R)-1-((2,2,2-trifluoroethyl)thio)propan-2-yl)-2-(trifluoromethyl)benzamide], the “YFM % Control (or Mortality) rating” value in data set [1] is on record as “A (80-100)”. Also, the mortality at 50 µg/cm2 in data set [2] and in data set [3] was 50 to 100% each time.

Take `C[C@H](CSCC(F)(F)F)NC(=O)c1ccc(/C(F)=C/C(c2ccc(Cl)c(Cl)c2)C(F)(F)F)cc1C(F)(F)F` (stereo partly drawn) [F20, 4-((Z)-3-(3,4-Dichlorophenyl)-1,4,4,4-tetrafluorobut-1-en-1-yl)-N—((R)-1-((2,2,2-trifluoroethyl)thio)propan-2-yl)-2-(trifluoromethyl)benzamide]: the “YFM % Control (or Mortality) rating” value in data set [1] is “D (No activity noticed in this bioassay)”. For the same compound, the mortality at 50 µg/cm2 in data set [2] and in data set [3] was 50 to 100% in each case.

As for `C[C@H](C[S+]([O-])CC(F)(F)F)NC(=O)c1ccc(/C(F)=C/C(c2cc(Br)c(Cl)c(Br)c2)C(F)(F)F)cc1C(F)(F)F` (stereo partly drawn) [F23, 4-((Z)-3-(3,5-Dibromo-4-chlorophenyl)-1,4,4,4-tetrafluorobut-1-en-1-yl)-N-((2R)-1-((2,2,2-trifluoroethyl)sulfinyl)propan-2-yl)-2-(trifluoromethyl)benzamide], the “YFM % Control (or Mortality) rating” value in data set [1] is given as “A (80-100)”. The mortality at 50 µg/cm2 in data set [2] and in data set [3] was 50 to 100% throughout.

With `C[C@H](CS(=O)(=O)CC(F)(F)F)NC(=O)c1ccc(/C(F)=C/C(c2cc(Cl)c(Br)c(Cl)c2)C(F)(F)F)cc1C(F)(F)F` (stereo partly drawn) [F25, 4-((Z)-3-(4-Bromo-3,5-dichlorophenyl)-1,4,4,4-tetrafluorobut-1-en-1-yl)-N—((R)-1-((2,2,2-trifluoroethyl)sulfonyl)propan-2-yl)-2-(trifluoromethyl)benzamide], the “YFM % Control (or Mortality) rating” value in data set [1] is “A (80-100)”. The mortality at 50 µg/cm2 in data set [2] and in data set [3] was 50 to 100% throughout.

Consider `C[C@H](C[S+]([O-])CC(F)(F)F)NC(=O)c1ccc(/C(F)=C/C(c2cc(Cl)c(Br)c(Cl)c2)C(F)(F)F)cc1C(F)(F)F` (stereo partly drawn) [F26, 4-((Z)-3-(4-Bromo-3,5-dichlorophenyl)-1,4,4,4-tetrafluorobut-1-en-1-yl)-N-((2R)-1-((2,2,2-trifluoroethyl)sulfinyl)propan-2-yl)-2-(trifluoromethyl)benzamide], for which the “YFM % Control (or Mortality) rating” value in data set [1] is “A (80-100)”. In addition, the mortality at 50 µg/cm2 in data set [2] and in data set [3] was 50 to 100% throughout.

As for `C[C@H](C[S+]([O-])CC(F)(F)F)NC(=O)c1ccc(/C(F)=C/C(c2cc(Cl)cc(Cl)c2)C(F)(F)F)cc1C(F)(F)F` (stereo partly drawn) [F27, 4-((Z)-3-(3,5-Dichlorophenyl)-1,4,4,4-tetrafluorobut-1-en-1-yl)-N-((2R)-1-((2,2,2-trifluoroethyl)sulfinyl)propan-2-yl)-2-(trifluoromethyl)benzamide], in data set [1], the “YFM % Control (or Mortality) rating” value is given as “A (80-100)”. The mortality at 50 µg/cm2 in data set [2] and in data set [3] was 50 to 100% throughout.

As for `C[C@H](C[S+]([O-])CC(F)(F)F)NC(=O)c1ccc(/C(F)=C/C(c2ccc(Cl)c(Cl)c2)C(F)(F)F)cc1C(F)(F)F` (stereo partly drawn) [F28, 4-((Z)-3-(3,4-Dichlorophenyl)-1,4,4,4-tetrafluorobut-1-en-1-yl)-N-((2R)-1-((2,2,2-trifluoroethyl)sulfinyl)propan-2-yl)-2-(trifluoromethyl)benzamide], the “YFM % Control (or Mortality) rating” value in data set [1] is listed as “B (More than 0-Less than 80)”. Also, the mortality at 50 µg/cm2 in data set [2] and in data set [3] was 50 to 100% each time.
